According to PubChem BioAssay AID2060491 (Molecular Pharmacology Branch, DTP, NCI, 2025):

Test system: 857933-349-R-J2-PDC complex spheroids, viability
Experiment: Anticancer human tumor 857933-349-R-J2-PDC patient-derived colon adenocarcinoma cell line growth inhibition [GQUAD]
Settings: for IC50: curve of first compound; for viability, T/C: stronger effect = lower value
In short: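 Viability of tumor cells grown as complex spheroids with endothelial and stromal cells, exposed to drug combinations. Top concentration at or near clinical Cmax (else 10 microM), diluted in half-log increments.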

[1] = second compound 0.0316 µM, first compound 0.0316 µM
[2] = second compound 0.0316 µM, first compound 0.1 µM
[3] = second compound 0.0316 µM, first compound 0.316 µM
[4] = second compound 0.0316 µM, first compound 1 µM
[5] = second compound 0.0316 µM, first compound 3.16 µM
[6] = second compound 0.0316 µM, first compound 10 µM
[7] = second compound 0.1 µM, first compound 0.0316 µM
[8] = second compound 0.1 µM, first compound 0.1 µM
[9] = second compound 0.1 µM, first compound 0.316 µM
[10] = second compound 0.1 µM, first compound 1 µM
[11] = second compound 0.1 µM, first compound 3.16 µM
[12] = second compound 0.1 µM, first compound 10 µM
[13] = second compound 0.316 µM, first compound 0.0316 µM
[14] = second compound 0.316 µM, first compound 0.1 µM
[15] = second compound 0.316 µM, first compound 0.316 µM
[16] = second compound 0.316 µM, first compound 1 µM
[17] = second compound 0.316 µM, first compound 3.16 µM
[18] = second compound 0.316 µM, first compound 10 µM
[19] = second compound 1 µM, first compound 0.0316 µM
[20] = second compound 1 µM, first compound 0.1 µM
[21] = second compound 1 µM, first compound 0.316 µM
[22] = second compound 1 µM, first compound 1 µM
[23] = second compound 1 µM, first compound 3.16 µM
[24] = second compound 1 µM, first compound 10 µM
[25] = second compound 3.16 µM, first compound 0.0316 µM
[26] = second compound 3.16 µM, first compound 0.1 µM
[27] = second compound 3.16 µM, first compound 0.316 µM
[28] = second compound 3.16 µM, first compound 1 µM
[29] = second compound 3.16 µM, first compound 3.16 µM
[30] = second compound 3.16 µM, first compound 10 µM
[31] = second compound 10 µM, first compound 0.0316 µM
[32] = second compound 10 µM, first compound 0.1 µM
[33] = second compound 10 µM, first compound 0.316 µM
[34] = second compound 10 µM, first compound 1 µM
[35] = second compound 10 µM, first compound 3.16 µM
[36] = second compound 10 µM, first compound 10 µM
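Further: spheroids exposed to compounds for one week before readout.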
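Wherever viability, T/C is given: percent viability relative to vehicle DMSO wells taken as 100%.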

SMILES: CC(C)n1c(=O)n(C)c2cnc3cc(F)c(-c4ccc(OCCCN5CCCCC5)nc4)cc3c21 + Cc1[nH]c2ccc(F)cc2c1-c1nc2c3cccnc3c3ncccc3c2[nH]1
- IC50 (second compound 0.0316 µM): > 10000 nM
- IC50 (second compound 0.1 µM): > 10000 nM
- IC50 (second compound 0.316 µM): > 10000 nM
- IC50 (second compound 1 µM): > 10000 nM
- IC50 (second compound 3.16 µM): > 10000 nM
- IC50 (second compound 10 µM): > 10000 nM
- viability, T/C [1]: 100%
- viability, T/C [2]: 102%
- viability, T/C [3]: 107%
- viability, T/C [4]: 102%
- viability, T/C [5]: 107%
- viability, T/C [6]: 84%
- viability, T/C [7]: 94.8%
- viability, T/C [8]: 115%
- viability, T/C [9]: 98.5%
- viability, T/C [10]: 95.4%
- viability, T/C [11]: 105%
- viability, T/C [12]: 79.9%
- viability, T/C [13]: 102%
- viability, T/C [14]: 101%
- viability, T/C [15]: 102%
- viability, T/C [16]: 107%
- viability, T/C [17]: 110%
- viability, T/C [18]: 83.5%
- viability, T/C [19]: 98.4%
- viability, T/C [20]: 106%
- viability, T/C [21]: 101%
- viability, T/C [22]: 107%
- viability, T/C [23]: 128%
- viability, T/C [24]: 79.3%
- viability, T/C [25]: 105%
- viability, T/C [26]: 103%
- viability, T/C [27]: 115%
- viability, T/C [28]: 98.6%
- viability, T/C [29]: 111%
- viability, T/C [30]: 83.8%
- viability, T/C [31]: 102%
- viability, T/C [32]: 103%
- viability, T/C [33]: 108%
- viability, T/C [34]: 103%
- viability, T/C [35]: 103%
- viability, T/C [36]: 88.9%

SMILES: CC[C@@]1(O)C(=O)OCc2c1cc1n(c2=O)Cc2cc3c(CN(C)C)c(O)ccc3nc2-1 + CN(C)c1ccc(Nc2c3ccc(NC(=O)CCN4CCCC4)cc3nc3cc(NC(=O)CCN4CCCC4)ccc23)cc1
- IC50 (second compound 0.0316 µM): 262 nM
- IC50 (second compound 0.1 µM): 272 nM
- IC50 (second compound 0.316 µM): 277 nM
- IC50 (second compound 1 µM): 296 nM
- IC50 (second compound 3.16 µM): > 316 nM
- IC50 (second compound 10 µM): > 316 nM
- viability, T/C (second compound 0.0316 µM, first compound 0.000999 µM): 101%
- viability, T/C (second compound 0.0316 µM, first compound 0.00316 µM): 103%
- viability, T/C (second compound 0.0316 µM, first compound 0.00999 µM): 101%
- viability, T/C [1]: 98.2%
- viability, T/C (second compound 0.0316 µM, first compound 0.0999 µM): 67%
- viability, T/C [3]: 46.7%
- viability, T/C (second compound 0.1 µM, first compound 0.000999 µM): 105%
- viability, T/C (second compound 0.1 µM, first compound 0.00316 µM): 109%
- viability, T/C (second compound 0.1 µM, first compound 0.00999 µM): 95.3%
- viability, T/C [7]: 97.7%
- viability, T/C (second compound 0.1 µM, first compound 0.0999 µM): 70.5%
- viability, T/C [9]: 47%
- viability, T/C (second compound 0.316 µM, first compound 0.000999 µM): 108%
- viability, T/C (second compound 0.316 µM, first compound 0.00316 µM): 101%
- viability, T/C (second compound 0.316 µM, first compound 0.00999 µM): 98.7%
- viability, T/C [13]: 89.6%
- viability, T/C (second compound 0.316 µM, first compound 0.0999 µM): 80.7%
- viability, T/C [15]: 45.1%
- viability, T/C (second compound 1 µM, first compound 0.000999 µM): 99.7%
- viability, T/C (second compound 1 µM, first compound 0.00316 µM): 99.1%
- viability, T/C (second compound 1 µM, first compound 0.00999 µM): 95.9%
- viability, T/C [19]: 88.5%
- viability, T/C (second compound 1 µM, first compound 0.0999 µM): 77.1%
- viability, T/C [21]: 48%
- viability, T/C (second compound 3.16 µM, first compound 0.000999 µM): 94.2%
- viability, T/C (second compound 3.16 µM, first compound 0.00316 µM): 77.4%
- viability, T/C (second compound 3.16 µM, first compound 0.00999 µM): 84.7%
- viability, T/C [25]: 76.1%
- viability, T/C (second compound 3.16 µM, first compound 0.0999 µM): 77.8%
- viability, T/C [27]: 54.5%
- viability, T/C (second compound 10 µM, first compound 0.000999 µM): 72.3%
- viability, T/C (second compound 10 µM, first compound 0.00316 µM): 76.8%
- viability, T/C (second compound 10 µM, first compound 0.00999 µM): 69.5%
- viability, T/C [31]: 69.9%
- viability, T/C (second compound 10 µM, first compound 0.0999 µM): 68.7%
- viability, T/C [33]: 59%

SMILES: CC(C)(O)C1CCC(Nc2ccc3ncc(-c4cccc(C(F)(F)F)c4)n3n2)CC1 (stereo not drawn) + CN(C)c1ccc(Nc2c3ccc(NC(=O)CCN4CCCC4)cc3nc3cc(NC(=O)CCN4CCCC4)ccc23)cc1
- IC50 (second compound 0.0316 µM): 801 nM
- IC50 (second compound 0.1 µM): 732 nM
- IC50 (second compound 0.316 µM): 691 nM
- IC50 (second compound 1 µM): 684 nM
- IC50 (second compound 3.16 µM): 596 nM
- IC50 (second compound 10 µM): 456 nM
- viability, T/C [1]: 117%
- viability, T/C [2]: 98.4%
- viability, T/C [3]: 97.5%
- viability, T/C [4]: 39.1%
- viability, T/C [5]: 2.79%
- viability, T/C [6]: 2.75%
- viability, T/C [7]: 102%
- viability, T/C [8]: 94%
- viability, T/C [9]: 89.3%
- viability, T/C [10]: 35.6%
- viability, T/C [11]: 2.84%
- viability, T/C [12]: 2.87%
- viability, T/C [13]: 99%
- viability, T/C [14]: 94.3%
- viability, T/C [15]: 87.2%
- viability, T/C [16]: 32.6%
- viability, T/C [17]: 3.05%
- viability, T/C [18]: 3.1%
- viability, T/C [19]: 94%
- viability, T/C [20]: 83.2%
- viability, T/C [21]: 83.3%
- viability, T/C [22]: 33.8%
- viability, T/C [23]: 3.77%
- viability, T/C [24]: 3.15%
- viability, T/C [25]: 78.9%
- viability, T/C [26]: 75.5%
- viability, T/C [27]: 74.2%
- viability, T/C [28]: 30.4%
- viability, T/C [29]: 7.32%
- viability, T/C [30]: 5.21%
- viability, T/C [31]: 62.9%
- viability, T/C [32]: 66.4%
- viability, T/C [33]: 59.4%
- viability, T/C [34]: 30.1%
- viability, T/C [35]: 15.3%
- viability, T/C [36]: 9.67%

SMILES: CC1COCCN1c1cc(-c2ccnn2C)c2ccnc(-c3ccn[nH]3)c2n1 (stereo not drawn) + Cc1[nH]c2ccc(F)cc2c1-c1nc2c3cccnc3c3ncccc3c2[nH]1
- IC50 (second compound 0.0316 µM): 250 nM
- IC50 (second compound 0.1 µM): 491 nM
- IC50 (second compound 0.316 µM): 327 nM
- IC50 (second compound 1 µM): 280 nM
- IC50 (second compound 3.16 µM): 197 nM
- IC50 (second compound 10 µM): 277 nM
- viability, T/C [1]: 73.7%
- viability, T/C [2]: 53.2%
- viability, T/C [3]: 50.3%
- viability, T/C [4]: 43.8%
- viability, T/C [5]: 55.3%
- viability, T/C [6]: 44.8%
- viability, T/C [7]: 69.6%
- viability, T/C [8]: 70.9%
- viability, T/C [9]: 53.2%
- viability, T/C [10]: 43.5%
- viability, T/C [11]: 46.9%
- viability, T/C [12]: 44.2%
- viability, T/C [13]: 71.7%
- viability, T/C [14]: 56.6%
- viability, T/C [15]: 49.2%
- viability, T/C [16]: 48.8%
- viability, T/C [17]: 47.4%
- viability, T/C [18]: 46.6%
- viability, T/C [19]: 61%
- viability, T/C [20]: 61.5%
- viability, T/C [21]: 48.6%
- viability, T/C [22]: 43.1%
- viability, T/C [23]: 52.8%
- viability, T/C [24]: 50.1%
- viability, T/C [25]: 75.2%
- viability, T/C [26]: 56%
- viability, T/C [27]: 45%
- viability, T/C [28]: 43.8%
- viability, T/C [29]: 44.6%
- viability, T/C [30]: 44.7%
- viability, T/C [31]: 74.4%
- viability, T/C [32]: 57%
- viability, T/C [33]: 50.4%
- viability, T/C [34]: 43.1%
- viability, T/C [35]: 46.1%
- viability, T/C [36]: 42.6%
